Tests used:
MDA-MB-231 cells = experiment: Intracellular ROS generation (DCF fluorescence); format: cell-based; conditions: 30 minutes treatment
Procedure: (§1) The breast cancer cells such as the MDA-MB-231 cells were obtained from Korean Cell Line Bank (Seoul, Korea), and the MDA-MB-435 cells were provided by J. H. Lee (Asan Medical Center, Seoul, Korea). These cells were cultured in an RPMI 1640 medium (Invitrogen) containing 10% FBS (Life Technologies, Inc.), 1% penicillin (50 units/mL), and an antibiotic antimycotic solution (Life Technologies, Inc.) at 37° C. under a 5% CO2 condition.
(§2) Intracellular ROS (H2O2) generated according to the treatment of the compound of the present invention (LMT-696) was measured as a function of DCF fluorescence. Specifically, before ROS measurement, 2×10^5 cells were grown in 60-mm wells, and cultured in a FBS-supplemented RPMI 1640 medium for 24 hours. To evaluate the effect of the compound of the present invention, the cells were treated with the compound (LMT-696) for 30 minutes. To measure the intracellular ROS, the cells were cultured with 20 μM of a H2O2-sensitive fluorescent material such as H2DCFDA [Molecular Probes (Eugene, Oreg.)] at 37° C. in a dark and humidified CO2 incubator for 20 minutes. […] A DCF fluorescent degree was measured with excitation and emission wavelengths at 488 and 530 nm, respectively, using a FACS Calibur flow cytometer (Becton Dickinson, N.J.).

MDA-MB-435 cells = experiment: Intracellular ROS generation (DCF fluorescence); format: cell-based; conditions: 30 minutes treatment
Procedure: as §1, §2

[1] = target: T1, BLT2-expressing cells (CHO-BLT2 cells) (Homo sapiens, UniProt Q9NPC1); experiment: MTT cell growth of LTB4-stimulated BLT2-expressing cells; format: cell-based; conditions: pre-treated at 10 μM, LTB4 300 nM
T1 construct: HA; expressed in transfected cells
T1 sequence (Q9NPC1 with tags, fused parts or gaps): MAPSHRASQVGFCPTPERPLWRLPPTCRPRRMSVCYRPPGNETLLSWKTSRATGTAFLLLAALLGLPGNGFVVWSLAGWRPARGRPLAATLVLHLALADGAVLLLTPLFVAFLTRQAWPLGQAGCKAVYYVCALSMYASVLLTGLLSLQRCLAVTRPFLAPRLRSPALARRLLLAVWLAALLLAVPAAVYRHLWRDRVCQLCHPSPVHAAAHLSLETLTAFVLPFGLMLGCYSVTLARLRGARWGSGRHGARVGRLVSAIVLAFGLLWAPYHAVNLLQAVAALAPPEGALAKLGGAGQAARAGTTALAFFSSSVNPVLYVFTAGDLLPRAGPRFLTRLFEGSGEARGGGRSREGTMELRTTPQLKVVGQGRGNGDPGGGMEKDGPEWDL
Procedure: Cell viability according to treatment of the compounds prepared in the examples were measured by a 3-(4,5-dimethylthiazol-2-yl)-2,5-diphenyltetrazolium bromide (MTT) method.
More specifically, 1×10^4 each of the BLT2-nonexpressing cells (CHO-pcDNA3.1 cells) and BLT2-expressing cells (CHO-BLT2 cells), which were prepared in Experimental Example 1, were dispensed in a […], and cultured for 24 hours. Afterward, the culture medium was removed, a serum-free RPMI medium was added, and after two hours, the cells were pre-treated with each of the compound prepared in one of the examples (10 μM), 10 μM DMSO (compound solvent) as a control, and 10 μM 1-[5-ethyl-2-hydroxy-4-[[6-methyl-6-(1H-tetrazol-5-yl)heptyl]oxy]phenyl]-ethanone (LY255283; Cayman) as a positive control for 1 hour. Subsequently, after treatment of LTB4 (300 nM), the cells were cultured for 24 hours. 20 μL of an MTT solution (5 mg/mL, Sigma-Aldrich) was added to each well, the cells were cultured in a humid CO2 incubator at 37° C. for 4 hours, a supernatant was removed, and 200 μL of DMSO was added to each well to dissolve insoluble violet formazan crystals. Absorbance was measured using a microplate reader (Molecular Devices, Sunnyvale, Calif.) at 550 nm, and the measurement was repeated three times.

BLT2 = target: T2, BLT2 (Homo sapiens, UniProt Q9NPC1); experiment: LTB4-induced chemotactic motility, Transwell, CHO-BLT2 cells; format: cell-based; conditions: LTB4 300 nM
T2 construct: HA; expressed in transfected cells
T2 sequence (Q9NPC1 with tags, fused parts or gaps): T1 sequence (Q9NPC1 with tags, fused parts or gaps)
Procedure: Chemotactic motility was analyzed using a Transwell chamber including a polycarbonate filter (8-μm pore size, Corning Costar) with a 6.5-mm diameter. Specifically, the lower surface of the filter was coated with 10 μg/mL fibronectin in a serum-free RPMI 1640 medium at 37° C. for 1 hour. The experiment was performed by placing the filter dried and coated with RPMI 1640 media containing various amounts of LTB4 in the lower wells of the Transwell chamber, and loading CHO cells stably expressing BLT1 and BLT2 into the upper wells containing serum-free RPMI 1640 media finally at 2×10^4 cells/100 μL. To evaluate the effect of inhibitors, the cells were pre-treated with each inhibitor for 30 minutes before dispensing. After the cells were cultured at 37° C. in 5% CO2 for 3 hours, the filters were fixed with methanol for 3 minutes, and stained with hematoxylin and eosin for 10 minutes. In the experiment, the cells were BLT2-expressing cells (CHO-BLT2 cells) and BLT1-expressing cells (CHO-BLT1 cells), and LY255283 and U75302 were used as positive controls for each type of the cells, and BLT2 ligand LTB4, (300 nM), BLT1 ligand LTB4 (10 nM), and lysophosphatidic acid (LPA; 100 nM) were used as comparative controls. The chemotactic motility was quantitatively analyzed by counting the cells on the lower side of the filter under an optical microscope (magnification, 200×). For each analysis, 6 fields were subjected to counting, each sample was analyzed twice, and the analysis was repeated three times.

[2] = test system: cancer cells (MDA-MB-231); experiment: Metastasis of breast cancer cells in nude mice; format: in vivo; conditions: MDA-MB-231 in nude mice, i.p.; LMT-696 and LY255283 2.5 mg/kg, U75302 0.25 mg/kg; 15 weeks
Procedure: An experiment for the metastasis of breast cancer cells according to the treatment of the compound of the present invention was approved by the Ethics Committee of Korea University, and all experimental animals used in this experiment were treated according to the approved guidelines of the Korea University Animal Care and Use Committee. Six-week-old female nude mice (Charles River, Wilmington, Mass.) were injected with cancer cells to confirm cancer cell metastasis. The breast cancer cells were pre-treated with the compound of the present invention (LMT-696, 10 μM), LY255283, U75302 and DMSO, and 24 hours later, harvested with trypsin-EDTA, resuspended in PBS, and then 2×10^6 of the breast cancer cells were intraperitoneally injected into mice anesthetized with zoletil (50 mg/kg). After five days, the compound of the present invention (LMT-696; 2.5 mg/kg), LY255283 (2.5 mg/kg), U75302 (0.25 mg/kg) and DMSO were injected intraperitoneally three times every five days. At 15 weeks after the injection of the breast cancer cells, the mice were dissected to observe the cancer cell metastasis.

## CCCCC(=O)N(CC#Cc1ccc(C(=O)N2CCN(C(C)C)CC2)cc1)c1ccccc1 [LMT-696, N-(3-(4-(4-isopropylpiperazine-1-carbonyl)phenyl)prop-2-ynyl)-N-phenylpentaneamide]
MDA-MB-231 cells
  inhibition of ROS generation: significant inhibition
MDA-MB-435 cells
  inhibition of ROS generation: significant inhibition
[1]
  cell growth compared with the control DMSO: 56.6%
BLT2; 10 μM pre-treatment, read-out: chemotactic motility inhibited compared with LTB4 (DMSO+)
  inhibition at 10 µM: 70.3%
BLT2; serum-free, read-out: IC50 of chemotactic motility inhibition
  IC50: 2000 nM
[2]
  metastasis of the cancer cells inhibited as compared with the control: 40%
